What was measured:
[1] = tested on: brain serotonin; experiment: Brain serotonin content in wild-type mice (HPLC); format: in vivo; conditions: WT mice, 250 mg/kg orally
Procedure: FIG. 15. HPLC analysis of serotonin content in the brain of wild-type mice that received vehicle or LP-533,401 (250 mg/kg, orally) for 1 day.
Blood samples were collected from mice and rats through cardiac puncture under isoflurane anesthesia, kept on ice for 5 min, and centrifuged at 13,000 rpm for 10 min at 4° C. Serum samples were stored at −80° C. until hormonal analyses were performed. Serum serotonin levels were quantified by ELISA (Serotonin kit, Fitzgerald) while serotonin levels in brain regions were quantified by HPLC as described previously (Mann et al., 1992, Arch. Gen. Psychiatry 49:442-446). Serum levels of total deoxypyridinoline (DPD) cross-links was measured using the Merta tDPD kit (Quidel corp. Sandiago, Calif.) and Osteocalcin using Rat and Mouse Ocn IRMA kit.

[2] = tested on: ovariectomized rats; experiment: Curative regimen in ovariectomized rats (histomorphometry, μCT, biomechanical testing); format: in vivo; conditions: OVX rats
Procedure: Virgin female Sprague-Dawley rats (National Institute of Nutrition, Hyderabad, India) were obtained at 3 months of age and allowed to acclimate to the facility for 1 week before study initiation and surgical procedures. They were housed under a 12 hour:12 hour light:dark cycle and provided throughout the study with water and PMI (Purina Mills, Incorporated) Certified Rodent Laboratory Chow. Rats were subjected to either bilateral ovariectomy or a sham operation under isoflurane anesthesia. […] The rats were divided into two groups of sham-operated and ovariectomized animals and left untreated for 3 weeks to allow bone loss to occur. One group of sham and one group of ovariectomized rats (n=10/group) were killed as baseline controls to determine bone loss before the start of LP-533,401 or PTH administration. The remaining animals (n=5-10/group) received vehicle or LP-533,401 (250 mg/kg/day) by gavage, or recombinant human PTH (80 ug/kg) by daily subcutaneous (s.c.) injection for 4 weeks. The 80 ug/kg dose of PTH was selected as being optimal for reversal of ovariectomy-induced bone loss in rats based on previous studies, while the dose of LP-533,401 was selected based on the effective dose for bone loss-reversal observed in mice experiments. To label bone-forming surfaces, animals were injected s.c. with calcein (8 mg/kg) at 10 and 3 days before death. Animals were killed by an overdose of Isofluorane anesthesia. The right tibia and lumbar vertebra 2 (L2) were collected, cleaned of excess soft tissue, fixed overnight in 10% formalin and processed for μCT or histomorphometric analysis. The right femur and L3 were cleaned of excess tissue and stored at −20° C. prior to biomechanical testing.
Bone histomorphometry was performed as previously described (Duey et al., 2000, Cell 100:197-207; Takeda et al., 2002, Cell 111:305-317; Parfitt et al., 1987, J. Bone Miner. Res. 2:595-610). Briefly, lumbar vertebrae were dissected, fixed for 24 hr in 10% formalin, dehydrated in graded ethanol series, and embedded in methyl methacrylate resin according to standard protocols (Parfitt et al., 1987, J. Bone Miner. Res. 2:595-610). Von Kossa/Von Gieson staining was performed using 7 μm sections for bone volume over tissue volume (BV/TV) measurement. Bone formation rate (BFR) was analyzed by the calcein double-labeling method (Ducy et al., 2000, Cell 100:197-207). Calcein (Sigma Chemical Co., St. Louis, Mo.) was dissolved in calcein buffer (0.15 M NaCl, 2% NaHCO3) and injected twice at 0.125 mg/g body weight on day 1 and 4, and then mice were killed on day 6. Unstained 4 μm sections were used for bone formation rate (BFR) measurements. For the analysis of parameters of osteoblasts and osteoclasts, 4 μm sections were stained with toluidine blue and tartrate-resistant acid phosphatase (TRAP), respectively (2). Histomorphometric analyses were performed using the Osteomeasure Analysis System (Osteometrics, Atlanta, Ga.).
Trabecular bone architecture of proximal tibia was assessed using a micro computed tomography (μCT) system (VivaCT 40, SCANCO Medical AG, Bassersdorf, Switzerland). Tibia bone specimen was stabilized with gauze in a 2 ml centrifuge tube filled with 70% ethanol and fastened in the specimen holder of the μCT scanner. One hundred μCT slices, corresponding to a 1.05 mm region distal from the growth plate, were acquired at an isotropic spatial resolution of 10.5 μm. A global thresholding technique was applied to binarize gray-scale μCT images where the minimum between the bone and bone marrow peaks in the voxel gray value histogram was chosen as the threshold value. The trabecular bone compartment was segmented by a semi-automatic contouring method and subjected to a model-independent morphological analysis (Hildebrand et al., 1999, J. Bone Miner. Res. 14:1167-1174) by the standard software provided by the manufacture of the μCT scanner. […]

[3] = long bones, μCT, all doses tested
[4] = LP-533,401 250 mg/kg/day, PTH 80 μg/kg/day

For `Nc1nc(OC(c2ccc(-c3cccc(F)c3)cc2)C(F)(F)F)cc(-c2ccc(C[C@H](N)C(=O)O)cc2)n1` (stereo partly drawn) [LP-533401, (2S)-2-amino-3-(4-(2-amino-6-(2,2,2-trifluoro-1-(3′-fluorobiphenyl-4-yl)ethoxy)pyrimidin-4-yl)phenyl)propanoic acid], the brain serotonin content [1] was “no change”, the “number of osteoclasts per bone surface (OcS/BS) versus untreated ovariectomized rats” value [2] was “similar” and the “ovariectomy-induced bone loss, histomorphometric analysis of vertebra” value ([2]; given 3 or 12 weeks post-ovariectomy for 4 weeks, even at 25 mg/kg/day) was “fully rescued”. For the same compound, the “efficiency compared with PTH (80 μg/kg/day, s.c.)” value ([2]; long bones, μCT) was “as efficient as the PTH regimen”, the “trabecular spacing (Tb.Sp*)” value [2, 3] was “reduced” and the “trabecular thickness (Tb.Th*)” value [2, 3] was “significantly increased”. The “trabecular number (Tb.N*)” value ([2]; long bones, μCT, all doses tested (25, 100, 250 mg/kg/day)) was “significantly increased”, the bone formation rate ([2]; vertebra) was “significant increase” and the osteoblast number ([2]; vertebra) was “significant increase”. The “bone mass in long bones versus vehicle-treated controls” value ([2]; μCT) was “increasing, in a dose-dependent manner”, the “decrease in cortical thickness at the femur mid-shaft” value [2, 4] was “equally rescued” and the “maximal load (femur, vertebra)” value [2, 4] was “restored to values seen in sham-operated rats”. The “stiffness (femur, vertebra)” value [2, 4] was “restored to values seen in sham-operated rats”.
